# Several values for one entry are separate records, joined by “and”; a condition that tells them apart may be missing. Equal values may be shown once. Read-outs that look alike come from different tables or passages of the source.
# Tests used:
# [1] = system: colorectal liver metastasis; conditions: cited from earlier work; for Survival: ref 16 (supplementary references)
# PECAM1/CD31 = assay: Serum angiogenesis marker, multiplex bead-based immunoassay (LEGENDplex); assay type: in vivo, human; conditions: for PECAM_1: serum, duplicate wells
# Description: (§1) Serum angiogenesis markers were quantified by multiplex bead-based immunoassays following provided instructions (LEGENDplex™, Biolegend, San Diego, CA/USA). For biochemical markers, the percentage change comparing before (day 1 0 h) with after (last day 9 h) ITPP treatment was calculated.
# [2] = system: human colon carcinomatosis; design: method as in ref 12 (supplementary references); conditions: xenogeneic mouse model of human colon carcinomatosis; ref 12 (supplementary references); cited from earlier work
# hepatocellular carcinoma = system: hepatocellular carcinoma; design: method as in ref 10 (supplementary references); conditions: syngeneic, orthotopic rat model of hepatocellular carcinoma; ref 10 (supplementary references); cited from earlier work
# [3] = design: method as in unpublished data obtained from NormOxys; conditions: rats, once a week for 5 weeks; ref unpublished data obtained from NormOxys; cited from earlier work
# [4] = system: VEGFA, ANG1/2, EGF, PECAM1/CD31; assay: Serum angiogenic markers overall, before vs after ITPP; assay type: in vivo, human
# Description: as §1
# EGF = assay: Serum angiogenesis marker, multiplex bead-based immunoassay (LEGENDplex); assay type: in vivo, human; design: EGF: unit not given here; conditions: for EGF: serum, duplicate wells
# pancreatic carcinoma = system: pancreatic carcinoma; design: method as in ref 15 (supplementary references); conditions: ref 15 (supplementary references), cited from earlier work
# [5] = following ITPP treatment, 27 patients
# [6] = Patient 25, Cohort 8, PDAC, Day 3 post
# [7] = Patient 25, Cohort 8, PDAC, Day 9 post
# [8] = Patient 26, Cohort 8, PDAC, Day 3 post
# [9] = Patient 26, Cohort 8, PDAC, Day 9 post
# [10] = Patient 27, Cohort 8, CCC, Day 3 post
# [11] = Patient 27, Cohort 8, CCC, Day 9 post
# [12] = Patient 28, Cohort 8, CRLM, Day 3 post
# [13] = Patient 28, Cohort 8, CRLM, Day 9 post
structure (smiles),measurement,setting,value
"O=P1(O)OC2C3OP(=O)(O)OP(=O)(O)OC3C3OP(=O)(O)OP(=O)(O)OC3C2OP(=O)(O)O1 (stereo not shown) [ITPP, Myo-inositol trispyrophosphate]",Survival,"[1]; FOLFOX combined with ITPP, 10 days, five times each on alternate days",153 days
same,Survival,[1]; FOLFOX given following ITPP treatment,152 days
same,Survival,[1]; ITPP alone,65.5 days
same,Extension of survival,"[1]; syngeneic mouse model of colorectal liver metastasis, 17 (supplementary references)",60%
same,Share of patients with reduced PECAM1,PECAM1/CD31; [5],66.7%
same,PECAM_1,PECAM1/CD31; [6],261.09
same,PECAM_1,PECAM1/CD31; [7],287.51 and 289.5
same,PECAM_1,PECAM1/CD31; [8],298.56 and 289.5
same,PECAM_1,PECAM1/CD31; [9],215.26 and 221.83
same,PECAM_1,PECAM1/CD31; [10],350.64 and 331.88
same,PECAM_1,PECAM1/CD31; [11],286.17 and 303.44
same,PECAM_1,PECAM1/CD31; [12],299.11 and 271.68
same,PECAM_1,PECAM1/CD31; [13],262.91 and 211.07
same,Decrease of tumor growth compared with capecitabine,[2],more efficient than capecitabine
same,Rats alive after 100 days,hepatocellular carcinoma,nine out of ten
same,Human equivalent dose-corrected NOAEL,[3],"15,000 mg/m2"
same,Share of patients with decreases in angiogenic markers,[4],~60%
same,Share of patients with reduced EGF,EGF; [5],85.2%
same,EGF,EGF; [6],16.25
same,EGF,EGF; [7],11.62 and 15.2
same,EGF,EGF; [8],14.41 and 12.95
same,EGF,EGF; [9],9.76 and 9.88
same,EGF,EGF; [10],5.57 and 4.9
same,EGF,EGF; [11],9.82 and 10.17
same,EGF,EGF; [12],2.39 and 3.39
same,EGF,EGF; [13],3.09 and 2.24
same,Survival,"pancreatic carcinoma; ITPP combined with half the usual dose of gemcitabine, all animals",> 200 days
same,Survival,pancreatic carcinoma; ITPP treatment alone,93 days

# Reference: PMC8217170, “Phase Ib dose-escalation study of the hypoxia-modifier Myo-inositol trispyrophosphate in patients with hepatopancreatobiliary tumors” (Nature Communications, 2021)
